Data published in US20240316017A1, “NOVEL PYRIDINE DERIVATIVE COMPOUND AS RON INHIBITOR” (LG CHEM, LTD., priority 2021, published 2024).

Key:
[1] = target: RON (Homo sapiens, UniProt Q04912); experiment: Evaluation of inhibitory activity against RON (TR-FRET kinase assay); assay type: biochemical; conditions: RON protein, ULight-labeled Poly GT substrate
Procedure: In order to measure the inhibitory activity of each of the compounds of Examples against RON, the IC50 of each of the compounds was measured using Time-resolved fluorescence energy transfer (TR-FRET).
(§1) Specifically, the compound was prepared to a concentration of 1 mM in 100% DMSO and was diluted 10 times in a stepwise manner through 3-fold dilution. The compound (2 ul) diluted in a stepwise manner was added to a 96-well-plate containing 48 ul of a 1× kinase reaction buffer (50 mM HEPES (pH 7.4), 0.01% Tween-20, 5 mM DTT, 0.5 mM Na3VO4, 2 mM EGTA, 10 mM MgCl2).
The RON protein was diluted to a concentration of 49.3 nM in a RON storage buffer (50 mM Tris-HCl (pH 7.5), 150 mM NaCl, 0.5 mM EDTA, 0.02% Triton X-100), and then diluted again to a concentration of 0.4 nM in a 1×kinase reaction buffer. As a substrate cocktail, a RON-specific substrate mixed solution (40 uM ULight-labeled Poly GT, 100 nM ATP) was prepared at a concentration 2 times the final reaction concentration.
(§2) Thereafter, a 384-well-plate was prepared, and 2.5 μl of each of the diluted compounds of Examples was added to a corresponding well of experimental group wells, and 2.5 μl of a 4% DMSO solution was dispensed into high control wells and low control wells.
(§3) Thereafter, 2.5 μL of 0.4 nM RON was dispensed into each of the high control wells and the experimental group wells, and 2.5 μL of the 1× kinase reaction buffer was added to the low control wells, and all the wells were centrifuged at room temperature for 40 seconds at 1,000 RPM, and then incubated at room temperature for 20-30 minutes. Then, 5 uL of the substrate cocktail (2×) was dispensed into each well, and all the wells were centrifuged at room temperature for 40 seconds at 1,000 RPM, and then incubated at room temperature for 60 minutes. Thereafter, 5 uL of 30 mM EDTA was added to each well to terminate the reaction, and all the wells were then incubated again at room temperature for 5 minutes. Thereafter, 5 uL of a 4× phosphotyrosine antibody (Perkin Elmer) containing europium was added to each well, and all the wells were then incubated at room temperature for 60 minutes. After the incubation, the 384-well-plate was read with the Vison plate reader. In this case, the excitation wavelength was 340 nm, and the emission wavelength was 620 nm and 665 nm. The IC50 value of each compound of Examples was derived using the GraphPd Prism7 program.

[2] = target: cMET (Homo sapiens, UniProt P08581); experiment: Evaluation of inhibitory activity against MET (TR-FRET kinase assay); assay type: biochemical; conditions: cMET protein, TK peptide substrate
Procedure: In addition, in order to measure the enzyme activity inhibition for cMET, the evaluation was performed in the same manner as the enzyme activity inhibition measurement experiment for RON.
as §1, with “7.4), 0.05% BSA, 0.005%” for “7.4), 0.01%”, “Tween-20, 1” for “Tween-20, 5”, “mM MnCl2, 20” for “mM Na3VO4, 2 mM EGTA, 10”
The cMET protein was diluted to a concentration of 263 nM in a cMET storage buffer (50 mM Tris-HCl (pH 7.5), 150 mM NaCl, 0.05% Brij35, 1 mM DTT, 10% Glycerol), and then diluted again to a concentration of 2 nM in a 1× kinase reaction buffer. As a substrate cocktail, a MET-specific substrate mixed solution (5 uM TK peptide, 10 mM ATP) was prepared at a concentration 2 times the final reaction concentration.
as §2
as §3, with “of 2” for “of 0.4”, “nM cMET” for “nM RON”, “the 1×kinase” for “the 1× kinase”, “of 90” for “of 30”

Chain of cMET (P08581 25-1390): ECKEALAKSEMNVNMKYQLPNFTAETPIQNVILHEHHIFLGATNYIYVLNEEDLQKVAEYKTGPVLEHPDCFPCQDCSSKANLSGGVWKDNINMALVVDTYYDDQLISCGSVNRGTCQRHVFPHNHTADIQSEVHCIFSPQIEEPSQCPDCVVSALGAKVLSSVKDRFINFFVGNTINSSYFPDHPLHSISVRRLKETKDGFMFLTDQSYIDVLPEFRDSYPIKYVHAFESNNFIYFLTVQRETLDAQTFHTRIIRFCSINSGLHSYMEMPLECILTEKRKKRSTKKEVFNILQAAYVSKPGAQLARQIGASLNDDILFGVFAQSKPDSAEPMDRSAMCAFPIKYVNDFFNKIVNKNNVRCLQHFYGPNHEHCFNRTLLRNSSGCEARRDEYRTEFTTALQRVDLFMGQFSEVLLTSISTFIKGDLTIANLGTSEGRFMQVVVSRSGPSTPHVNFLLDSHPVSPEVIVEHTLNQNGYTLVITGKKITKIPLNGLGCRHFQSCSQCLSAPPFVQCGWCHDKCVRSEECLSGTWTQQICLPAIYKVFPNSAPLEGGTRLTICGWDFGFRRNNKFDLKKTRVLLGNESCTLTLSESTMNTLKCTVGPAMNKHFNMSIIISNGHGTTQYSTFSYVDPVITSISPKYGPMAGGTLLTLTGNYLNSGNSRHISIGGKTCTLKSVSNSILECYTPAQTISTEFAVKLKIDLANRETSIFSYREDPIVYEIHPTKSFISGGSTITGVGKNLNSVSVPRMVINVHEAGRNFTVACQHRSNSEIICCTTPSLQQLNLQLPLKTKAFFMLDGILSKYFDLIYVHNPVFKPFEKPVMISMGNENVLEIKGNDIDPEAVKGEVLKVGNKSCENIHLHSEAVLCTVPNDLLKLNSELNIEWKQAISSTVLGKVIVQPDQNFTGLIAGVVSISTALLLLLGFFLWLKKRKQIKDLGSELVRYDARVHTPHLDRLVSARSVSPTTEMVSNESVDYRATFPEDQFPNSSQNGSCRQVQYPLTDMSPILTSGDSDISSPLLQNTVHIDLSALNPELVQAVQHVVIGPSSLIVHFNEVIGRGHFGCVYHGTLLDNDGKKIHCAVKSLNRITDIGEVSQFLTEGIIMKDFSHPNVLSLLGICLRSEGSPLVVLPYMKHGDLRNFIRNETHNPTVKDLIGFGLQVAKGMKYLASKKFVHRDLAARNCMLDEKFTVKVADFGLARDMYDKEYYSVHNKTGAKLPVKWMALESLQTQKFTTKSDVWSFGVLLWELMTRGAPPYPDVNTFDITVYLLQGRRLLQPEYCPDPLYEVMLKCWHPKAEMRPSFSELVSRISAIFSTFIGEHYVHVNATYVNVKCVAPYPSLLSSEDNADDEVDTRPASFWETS
Chain of RON (Q04912 25-1400, species assumed): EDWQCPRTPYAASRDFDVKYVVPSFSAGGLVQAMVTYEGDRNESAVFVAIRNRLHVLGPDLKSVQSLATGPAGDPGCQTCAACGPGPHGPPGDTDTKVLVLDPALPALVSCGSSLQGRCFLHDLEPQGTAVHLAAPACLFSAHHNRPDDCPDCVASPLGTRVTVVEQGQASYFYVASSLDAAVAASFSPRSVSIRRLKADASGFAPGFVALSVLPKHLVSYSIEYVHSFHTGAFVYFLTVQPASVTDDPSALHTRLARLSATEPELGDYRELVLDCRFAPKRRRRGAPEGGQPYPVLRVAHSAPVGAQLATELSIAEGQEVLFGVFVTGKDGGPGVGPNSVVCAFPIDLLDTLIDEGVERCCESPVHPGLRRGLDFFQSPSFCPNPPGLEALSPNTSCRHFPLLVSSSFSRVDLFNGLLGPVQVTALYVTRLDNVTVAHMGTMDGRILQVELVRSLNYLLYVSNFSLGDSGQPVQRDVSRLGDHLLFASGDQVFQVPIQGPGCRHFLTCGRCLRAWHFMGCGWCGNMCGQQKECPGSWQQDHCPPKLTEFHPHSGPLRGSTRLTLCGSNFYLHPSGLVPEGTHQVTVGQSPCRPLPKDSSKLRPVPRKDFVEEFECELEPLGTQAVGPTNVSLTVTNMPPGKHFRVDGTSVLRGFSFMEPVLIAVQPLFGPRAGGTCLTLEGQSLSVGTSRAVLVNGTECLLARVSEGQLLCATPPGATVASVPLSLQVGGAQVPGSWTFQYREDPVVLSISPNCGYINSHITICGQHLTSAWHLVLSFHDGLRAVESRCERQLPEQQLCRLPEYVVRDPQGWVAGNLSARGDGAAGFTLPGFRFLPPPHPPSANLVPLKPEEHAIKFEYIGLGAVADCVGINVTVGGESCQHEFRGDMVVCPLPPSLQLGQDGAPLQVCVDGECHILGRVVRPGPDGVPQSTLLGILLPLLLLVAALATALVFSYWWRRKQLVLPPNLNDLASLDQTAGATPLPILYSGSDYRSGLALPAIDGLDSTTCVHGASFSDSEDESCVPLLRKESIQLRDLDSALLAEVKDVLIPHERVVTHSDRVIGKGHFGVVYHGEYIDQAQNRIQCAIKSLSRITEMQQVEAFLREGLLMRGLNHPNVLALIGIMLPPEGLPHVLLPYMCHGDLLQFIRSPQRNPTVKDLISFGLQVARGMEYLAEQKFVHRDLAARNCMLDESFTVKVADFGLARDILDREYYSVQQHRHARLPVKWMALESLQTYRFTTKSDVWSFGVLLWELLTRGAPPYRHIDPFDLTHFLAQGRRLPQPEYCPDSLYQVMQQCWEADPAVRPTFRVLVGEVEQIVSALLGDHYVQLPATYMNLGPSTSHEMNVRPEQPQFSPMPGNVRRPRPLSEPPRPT

Structure (SMILES): Cc1nc(-c2ccccc2)sc1C(=O)Nc1ccc(Oc2ccnc(N)c2Cl)c(F)c1 [Example 31, N-(4-((2-amino-3-chloropyridin-4-yl)oxy)-3-fluorophenyl)-4-methyl-2-phenylthiazole-5-carboxamide]
- IC50 [1]: 500 to 5000 nM
- IC50 [2]: > 5000 nM

Structure (SMILES): Cn1ncc(C(=O)Nc2ccc(Oc3ccnc(N)c3Cl)c(F)c2)c1C(F)F [Example 9, N-(4-((2-amino-3-chloropyridin-4-yl)oxy)-3-fluorophenyl)-5-(difluoromethyl)-1-methyl-1H-pyrazole-4-carboxamide]
- IC50 [1]: 500 to 5000 nM
- IC50 [2]: > 5000 nM

Structure (SMILES): Cc1c(C(=O)Nc2ccc(Oc3ccnc(N)c3Cl)c(F)c2)cnn1-c1ccccc1 [Example 3, N-(4-((2-amino-3-chloropyridin-4-yl)oxy)-3-fluorophenyl)-5-methyl-1-phenyl-1H-pyrazole-4-carboxamide]
- IC50 [1]: 50 to 500 nM
- IC50 [2]: 50 to 500 nM

Structure (SMILES): COc1ccccc1-n1ncc(C(=O)Nc2ccc(Oc3ccnc(N)c3Cl)c(F)c2)c1C(F)(F)F [Example 16, N-(4-((2-amino-3-chloropyridin-4-yl)oxy)-3-fluorophenyl)-1-(2-methoxyphenyl)-5-(trifluoromethyl)-1H-pyrazole-4-carboxamide]
- IC50 [1]: 50 to 500 nM
- IC50 [2]: > 5000 nM

Structure (SMILES): Cc1ccc(-n2ncc(C(=O)Nc3ccc(Oc4ccnc(N)c4Cl)c(F)c3)c2C(F)(F)F)cc1 [Example 15, N-(4-((2-amino-3-chloropyridin-4-yl)oxy)-3-fluorophenyl)-1-(p-tolyl)-5-(trifluoromethyl)-1H-pyrazole-4-carboxamide]
- IC50 [1]: > 5000 nM
- IC50 [2]: 500 to 5000 nM

Structure (SMILES): Cc1c(C(=O)Nc2ccc(Oc3ccnc(N)c3Cl)c(F)c2)nnn1-c1ccccc1 [Example 41, N-(4-((2-amino-3-chloropyridin-4-yl)oxy)-3-fluorophenyl)-5-methyl-1-phenyl-1H-1,2,3-triazole-4-carboxamide]
- IC50 [1]: 50 to 500 nM
- IC50 [2]: > 5000 nM

Structure (SMILES): Nc1nccc(Oc2ccc(NC(=O)c3ncc(-c4ccccc4)s3)cc2F)c1Cl [Example 32, N-(4-((2-amino-3-chloropyridin-4-yl)oxy)-3-fluorophenyl)-5-phenylthiazole-2-carboxamide]
- IC50 [1]: 500 to 5000 nM
- IC50 [2]: > 5000 nM

Structure (SMILES): Nc1nccc(Oc2ccc(NC(=O)c3ncn(-c4ccccc4)c3C(F)(F)F)cc2F)c1Cl [Example 1, N-(4-((2-amino-3-chloropyridin-4-yl)oxy)-3-fluorophenyl)-1-phenyl-5-(trifluoromethyl)-1H-imidazole-4-carboxamide]
- IC50 [1]: < 50 nM
- IC50 [2]: 500 to 5000 nM

Structure (SMILES): Nc1nccc(Oc2ccc(NC(=O)c3cnn(-c4ccccc4)c3-c3ccccc3)cc2F)c1Cl [Example 19, N-(4-((2-amino-3-chloropyridin-4-yl)oxy)-3-fluorophenyl)-1,5-diphenyl-1H-pyrazole-4-carboxamide]
- IC50 [1]: 50 to 500 nM
- IC50 [2]: 500 to 5000 nM

Structure (SMILES): O=C(Nc1ccc(Oc2ccnc(NC(=O)C3CC3)c2Cl)c(F)c1)c1ncn(-c2ccccc2)c1C(F)(F)F [Example 23]
- IC50 [1]: 50 to 500 nM
- IC50 [2]: > 5000 nM

Structure (SMILES): Cc1nn(-c2ccccc2)c(C)c1C(=O)Nc1ccc(Oc2ccnc(N)c2Cl)c(F)c1 [Example 4, N-(4-((2-amino-3-chloropyridin-4-yl)oxy)-3-fluorophenyl)-3,5-dimethyl-1-phenyl-1H-pyrazole-4-carboxamide]
- IC50 [1]: 50 to 500 nM
- IC50 [2]: > 5000 nM

Structure (SMILES): O=C(Nc1ccc(Oc2ncnc(NC3CC3)c2Cl)c(F)c1)c1cnn(-c2ccccc2)c1C(F)(F)F [Example 62, N-(4-((5-chloro-6-(cyclopropylamino)pyrimidin-4-yl)oxy)-3-fluorophenyl)-1-phenyl-5-(trifluoromethyl)-1H-pyrazole-4-carboxamide]
- IC50 [1]: > 5000 nM
- IC50 [2]: > 5000 nM

Structure (SMILES): Nc1nccc(Oc2ccc(NC(=O)c3cnn(-c4ccccc4)c3F)cc2F)c1Cl [Example 20, N-(4-((2-amino-3-chloropyridin-4-yl)oxy)-3-fluorophenyl)-5-fluoro-1-phenyl-1H-pyrazole-4-carboxamide]
- IC50 [1]: 50 to 500 nM
- IC50 [2]: > 5000 nM

Structure (SMILES): Nc1ncnc(Oc2ccc(NC(=O)c3ncn(-c4ccccc4)c3C(F)(F)F)cc2F)c1Cl [Example 63, N-[4-(6-amino-5-chloro-pyrimidin-4-yl)oxy-3-fluorophenyl]-1-phenyl-5-(trifluoromethyl)imidazole-4-carboxamide]
- IC50 [1]: 50 to 500 nM
- IC50 [2]: > 5000 nM

Structure (SMILES): CCc1c(C(=O)Nc2ccc(Oc3ccnc(N)c3Cl)c(F)c2)cnn1-c1ccccc1 [Example 5, N-(4-((2-amino-3-chloropyridin-4-yl)oxy)-3-fluorophenyl)-5-ethyl-1-phenyl-1H-pyrazole-4-carboxamide]
- IC50 [1]: 50 to 500 nM
- IC50 [2]: 500 to 5000 nM

Structure (SMILES): Nc1nccc(Oc2ccc(NC(=O)c3cnn(-c4ccccc4)c3C(F)(F)F)cc2F)c1I [Example 43, N-(4-((2-amino-3-iodopyridin-4-yl)oxy)-3-fluorophenyl)-1-phenyl-5-(trifluoromethyl)-1H-pyrazole-4-carboxamide]
- IC50 [1]: < 50 nM
- IC50 [2]: > 5000 nM

Structure (SMILES): Cc1ccc(-n2ncc(C(=O)Nc3ccc(Oc4ncnc(N)c4Cl)c(F)c3)c2C(F)(F)F)cc1 [Example 49]
- IC50 [1]: > 5000 nM
- IC50 [2]: > 5000 nM

Structure (SMILES): Nc1nccc(Oc2ccc(NC(=O)c3cnc(-c4ccccc4)s3)cc2F)c1Cl [Example 30, N-(4-((2-amino-3-chloropyridin-4-yl)oxy)-3-fluorophenyl)-2-phenylthiazole-5-carboxamide]
- IC50 [1]: 50 to 500 nM
- IC50 [2]: > 5000 nM

Structure (SMILES): O=C(Nc1ccc(Oc2ccnc(Cl)c2)c(F)c1)c1ncn(-c2ccccc2)c1C(F)(F)F [Example 24]
- IC50 [1]: > 5000 nM
- IC50 [2]: > 5000 nM

Structure (SMILES): Nc1nccc(Oc2ccc(NC(=O)c3cnn(-c4ccccc4)c3C(F)F)cc2F)c1Cl [Example 6, N-(4-((2-amino-3-chloropyridin-4-yl)oxy)-3-fluorophenyl)-5-(difluoromethyl)-1-phenyl-1H-pyrazole-4-carboxamide]
- IC50 [1]: 50 to 500 nM
- IC50 [2]: > 5000 nM

Structure (SMILES): Cc1nc(C(=O)Nc2ccc(Oc3ccnc(N)c3Cl)c(F)c2)c(C)n1-c1ccccc1 [Example 14, N-(4-((2-amino-3-chloropyridin-4-yl)oxy)-3-fluorophenyl)-2,5-dimethyl-1-phenyl-1H-imidazole-4-carboxamide]
- IC50 [1]: 50 to 500 nM
- IC50 [2]: 500 to 5000 nM

Structure (SMILES): Nc1nccc(Oc2ccc(NC(=O)c3ncn(-c4ccccc4)c3C(F)(F)F)cc2F)c1I [Example 29, N-(4-((2-amino-3-iodopyridin-4-yl)oxy)-3-fluorophenyl)-1-phenyl-5-(trifluoromethyl)-1H-imidazole-4-carboxamide]
- IC50 [1]: < 50 nM
- IC50 [2]: 500 to 5000 nM

Structure (SMILES): Nc1cc(Oc2ccc(NC(=O)c3cnn(-c4ccccc4)c3C(F)(F)F)cc2F)ccn1 [Example 44, N-(4-((2-aminopyridin-4-yl)oxy)-3-fluorophenyl)-1-phenyl-5-(trifluoromethyl)-1H-pyrazole-4-carboxamide]
- IC50 [1]: 50 to 500 nM
- IC50 [2]: > 5000 nM
